Values after ≈ are worked out from the molar mass of the structure shown.
Experiments:
Type in all cases: functional
Pseudomonas aeruginosa = experiment: microbe, parasite or virus in culture; settings: ATCC 9027, 24 h
Description: Antibacterial activity against Pseudomonas aeruginosa ATCC 9027 assessed as growth inhibition after 24 hr by microdilution method

Klebsiella pneumoniae = experiment: microbe, parasite or virus in culture; settings: ATCC 10031, 24 h
Description: Antibacterial activity against Klebsiella pneumoniae ATCC 10031 assessed as growth inhibition after 24 hr by microdilution method

Escherichia coli = experiment: microbe, parasite or virus in culture; settings: ATCC 8739, 24 h
Description: Antibacterial activity against Escherichia coli ATCC 8739 assessed as growth inhibition after 24 hr by microdilution method

Bacillus subtilis = experiment: microbe, parasite or virus in culture; settings: ATCC 6633, 24 h
Description: Antibacterial activity against Bacillus subtilis ATCC 6633 assessed as growth inhibition after 24 hr by microdilution method

[1] = tested on: Staphylococcus epidermidis; experiment: microbe, parasite or virus in culture; settings: ATCC 12228, 24 h
Description: Antibacterial activity against Staphylococcus epidermidis ATCC 12228 assessed as growth inhibition after 24 hr by microdilution method

Staphylococcus aureus = experiment: microbe, parasite or virus in culture; settings: ATCC 6538p, 24 h
Description: Antibacterial activity against Staphylococcus aureus ATCC 6538p assessed as growth inhibition after 24 hr by microdilution method

Helicobacter pylori [2] = experiment: Antibacterial activity against Helicobacter pylori strain 1 assessed as diameter of growth inhibition zone at 32 ug/disk after 3-5 days by filter paper disk diffusion method; settings: read-out: DIZ
Helicobacter pylori [3] = experiment: Antibacterial activity against Helicobacter pylori strain 1 assessed as diameter of growth inhibition zone at 16 ug/disk after 3-5 days by filter paper disk diffusion method; settings: read-out: DIZ
Helicobacter pylori [4] = experiment: Antibacterial activity against Helicobacter pylori strain 1 assessed as diameter of growth inhibition zone at 8 ug/disk after 3-5 days by filter paper disk diffusion method; settings: read-out: DIZ
Helicobacter pylori [5] = experiment: Antibacterial activity against Helicobacter pylori strain 3 assessed as diameter of growth inhibition zone at 64 ug/disk after 3-5 days by filter paper disk diffusion method; settings: read-out: DIZ
Helicobacter pylori [6] = experiment: Antibacterial activity against Helicobacter pylori strain 3 assessed as diameter of growth inhibition zone at 32 ug/disk after 3-5 days by filter paper disk diffusion method; settings: read-out: DIZ
Helicobacter pylori [7] = experiment: Antibacterial activity against Helicobacter pylori strain 3 assessed as diameter of growth inhibition zone at 16 ug/disk after 3-5 days by filter paper disk diffusion method; settings: read-out: DIZ
Helicobacter pylori [8] = experiment: Antibacterial activity against Helicobacter pylori strain 3 assessed as diameter of growth inhibition zone at 8 ug/disk after 3-5 days by filter paper disk diffusion method; settings: read-out: DIZ
Helicobacter pylori [9] = experiment: Antibacterial activity against Helicobacter pylori strain 2 assessed as diameter of growth inhibition zone at 64 ug/disk after 3-5 days by filter paper disk diffusion method; settings: read-out: DIZ
Helicobacter pylori [10] = experiment: Antibacterial activity against Helicobacter pylori strain 2 assessed as diameter of growth inhibition zone at 32 ug/disk after 3-5 days by filter paper disk diffusion method; settings: read-out: DIZ
Helicobacter pylori [11] = experiment: Antibacterial activity against Helicobacter pylori strain 2 assessed as diameter of growth inhibition zone at 16 ug/disk after 3-5 days by filter paper disk diffusion method; settings: read-out: DIZ
Helicobacter pylori [12] = experiment: Antibacterial activity against Helicobacter pylori strain 2 assessed as diameter of growth inhibition zone at 8 ug/disk after 3-5 days by filter paper disk diffusion method; settings: read-out: DIZ
Helicobacter pylori [13] = experiment: Antibacterial activity against Helicobacter pylori strain 1 assessed as diameter of growth inhibition zone at 64 ug/disk after 3-5 days by filter paper disk diffusion method; settings: read-out: DIZ

| SMILES | MIC (Pseudomonas aeruginosa) | MIC (Klebsiella pneumoniae) | MIC (Escherichia coli) | MIC (Bacillus subtilis) | MIC [1] | MIC (Staphylococcus aureus) | zone of inhibition at 32 µg/disc (Helicobacter pylori [2]) | zone of inhibition at 16 µg/disc (Helicobacter pylori [3]) | zone of inhibition at 8 µg/disc (Helicobacter pylori [4]) | zone of inhibition at 64 µg/disc (Helicobacter pylori [5]) | zone of inhibition at 32 µg/disc (Helicobacter pylori [6]) | zone of inhibition at 16 µg/disc (Helicobacter pylori [7]) | zone of inhibition at 8 µg/disc (Helicobacter pylori [8]) | zone of inhibition at 64 µg/disc (Helicobacter pylori [9]) | zone of inhibition at 32 µg/disc (Helicobacter pylori [10]) | zone of inhibition at 16 µg/disc (Helicobacter pylori [11]) | zone of inhibition at 8 µg/disc (Helicobacter pylori [12]) | zone of inhibition at 64 µg/disc (Helicobacter pylori [13]) |
| --- | --- | --- | --- | --- | --- | --- | --- | --- | --- | --- | --- | --- | --- | --- | --- | --- | --- | --- |
| O=C1N/C(=N\c2nc3ccccc3s2)S/C1=C\c1ccc([N+](=O)[O-])s1 | > 100 µg/mL | > 100 µg/mL | > 100 µg/mL | 0.78 µg/mL (≈ 2.01 µM) | 0.19 µg/mL (≈ 0.489 µM) | 0.39 µg/mL (≈ 1 µM) | – | – | – | – | – | – | – | – | – | – | – | – |
| Cn1c(/C=C2\S/C(=N/c3nccs3)NC2=O)ccc1[N+](=O)[O-] | > 100 µg/mL | 0.39 µg/mL (≈ 1.16 µM) | 12.5 µg/mL (≈ 37.3 µM) | 0.19 µg/mL (≈ 0.567 µM) | 0.19 µg/mL (≈ 0.567 µM) | 0.78 µg/mL (≈ 2.33 µM) | > 50 mm | > 50 mm | > 50 mm | > 50 mm | > 50 mm | > 50 mm | > 50 mm | > 50 mm | > 50 mm | > 50 mm | > 50 mm | > 50 mm |
| Cn1c(/C=C2\S/C(=N/c3nc(-c4ccccc4)cs3)NC2=O)ccc1[N+](=O)[O-] | > 100 µg/mL | > 100 µg/mL | > 100 µg/mL | 50 µg/mL (≈ 122 µM) | 50 µg/mL (≈ 122 µM) | > 100 µg/mL | 6 mm | 6 mm | 6 mm | 6 mm | 6 mm | 6 mm | 6 mm | 6 mm | 6 mm | 6 mm | 6 mm | 6 mm |
| COc1ccc(-c2csc(/N=C3\NC(=O)/C(=C/c4ccc([N+](=O)[O-])n4C)S3)n2)cc1 | > 100 µg/mL | 100 µg/mL (≈ 227 µM) | > 100 µg/mL | 50 µg/mL (≈ 113 µM) | 25 µg/mL (≈ 56.6 µM) | > 100 µg/mL | 6 mm | 6 mm | 6 mm | 6 mm | 6 mm | 6 mm | 6 mm | 6 mm | 6 mm | 6 mm | 6 mm | 6 mm |
| Cn1c(/C=C2\S/C(=N/c3nc4ccccc4s3)NC2=O)ccc1[N+](=O)[O-] | > 100 µg/mL | 25 µg/mL (≈ 64.9 µM) | > 100 µg/mL | 12.5 µg/mL (≈ 32.4 µM) | 25 µg/mL (≈ 64.9 µM) | 25 µg/mL (≈ 64.9 µM) | 29 mm | 26 mm | 23 mm | 30 mm | 26 mm | 24 mm | 22 mm | 35 mm | 33 mm | 29 mm | 27 mm | 32 mm |
| O=C1N/C(=N\c2nccs2)S/C1=C\C1C(=O)Nc2ccccc21 (centres undefined) | > 100 µg/mL | > 100 µg/mL | > 100 µg/mL | 6.25 µg/mL (≈ 18.3 µM) | 12.5 µg/mL (≈ 36.5 µM) | 25 µg/mL (≈ 73 µM) | 13 mm | 12 mm | 10 mm | 15 mm | 14 mm | 10 mm | 10 mm | 20 mm | 18 mm | 14 mm | 12 mm | 15 mm |
| O=C(O)c1cn(C2CC2)c2cc(N3CCNCC3)c(F)cc2c1=O [CIPROFLOXACIN] | 0.39 µg/mL (≈ 1.18 µM) | 0.006 µg/mL (≈ 0.0181 µM) | – | 0.19 µg/mL (≈ 0.573 µM) | 0.097 µg/mL (≈ 0.293 µM) | 0.19 µg/mL (≈ 0.573 µM) | – | – | – | – | – | – | – | – | – | – | – | – |
| Cc1ncc([N+](=O)[O-])n1CCO [METRONIDAZOLE] | – | – | – | – | – | – | – | 14 mm | – | – | – | 14 mm | – | – | – | 14 mm | – | – |

Reference: ChEMBL document CHEMBL3045421, “5-Nitro-heteroarylidene analogs of 2-thiazolylimino-4-thiazolidinones as a novel series of antibacterial agents” (2013)
